{"source": "patent US20160279110A1", "about": "“COMPOSITIONS AND METHODS FOR TREATING CANCER” (UNIVERSITY OF ROCHESTER, priority 2015, published 2016)", "key": {"[1]": {"system": "NMD", "assay": "mRNA/pre-mRNA ratio of NMD targets by RT-qPCR in MCF7 cells", "format": "cell-based, human", "details": "MCF7, 5 μM doxorubicin", "description": "(§1) In FIG. 9a, MCF7 cells were treated with […] doxorubicin for the hours (h) indicated. mRNA-to-pre-mRNA ratios for the specified transcripts were measured using RT-qPCR and normalized to the ratio at 0 h, which is defined as 100%. The level of each pre-mRNA was also normalized to the level of GAPDH mRNA, and the normalized level at 0 h is defined as 100%. There are separate scales for the graphs of mRNA/pre-mRNA ratios (left) and the graphs of pre-mRNA/GAPDH mRNA ratios (right). Separately, MCF7 cells were transfected with plasmids encoding reporter β-Gl Norm mRNA or β-Gl Ter mRNA together with a plasmid encoding the reference MUP mRNA and subsequently exposed to doxorubicin (5 μM) for the times indicated. Reporter transcript levels were normalized to the level of MUP mRNA, and the normalized level of β-Gl Ter mRNA was presented as a percentage of the normalized level of β-Gl Norm mRNA, which is defined as 100% at 0 h. Error bars=S.E.M., asterisk=p<0.05 relative to the 0 h time point using the Student's t-test. #=pre-mRNA levels below qPCR detection threshold. n>3 independent biological replicates. […] HeLa and MCF7 cells were transfected with either control (Ctrl) siRNA or UPF1 siRNA, the latter to deplete endogenous UPF1 protein to less than 5% of the normal level (top western blots). mRNA/pre-mRNA ratios were then assessed using RT-qPCR as in FIG. 1a (bottom). Western blots derive from and are representative of 3 independent biological replicates used for the corresponding RT-qPCR analyses. Error bars=S.E.M., asterisk=p<0.05 relative to control siRNA using the Student's t-test. n=3 independent biological replicates.\nCells were homogenized, and RNA was purified using RNeasy mini kits (Qiagen). To ensure linearity of both reverse transcription (RT) and qPCR analyses, 17 standard concentrations were constructed using two-fold serial dilutions of total-cell RNA, beginning with 2 μg. Experimental sample input was 200 ng of RNA. RT was conducted using Superscript III (Invitrogen) according to manufacturer's directions and 100 ng of random hexamer (Invitrogen) in a 20 μl reaction volume. Thermal cycling was as follows: 25° C. for 5 min; 42° C. for 60 min; 50° C. for 60 min; and 75° C. for 10 min. Reactions were diluted to a final volume of 80 μl with water and used for qPCR.\nqPCR was conducted using FAST SYBR green master mix (ABI; Foster City, Calif.) according to manufacturer's directions. […]\nThe stability of a panel of known NMD target mRNAs in human MCF7 breast cancer cells during doxorubicin treatment was examined. […] To support this, the level of each mRNA was measured relative to the level of the pre-mRNA from which it derives as a function of time after doxorubicin treatment to control for transcriptional effects. […]"}, "[2]": {"system": "NMD", "assay": "β-Gl Norm/Ter NMD reporter in MCF7 cells during doxorubicin treatment", "format": "cell-based, human", "details": "MCF7, 5 μM doxorubicin, by 5 h (from ~65% before)", "description": "as §1, with “Western blots derive from and are representative of 3 independent biological replicates used for the corresponding RT-qPCR analyses. Error bars=S.E.M., asterisk=p<0.05 relative to control siRNA using the Student's t-test. n=3 independent biological replicates.” left out"}}}
{"smiles": "COc1cccc2c1C(=O)c1c(O)c3c(c(O)c1C2=O)C[C@@](O)(C(=O)CO)C[C@@H]3O[C@H]1C[C@H](N)[C@H](O)[C@H](C)O1", "note": "[doxorubicin, Doxorubicin]", "values": [{"measurement": "mRNA/pre-mRNA ratio of PANK2, TSTD2, NAT9", "setting": "[1]", "result": "increases for all three transcripts"}, {"measurement": "CDKN1A mRNA/pre-mRNA ratio increase relative to 0 h", "setting": "[1]; 5 h", "result": "~5.7", "unit": "fold"}, {"measurement": "CDKN1A pre-mRNA level decrease", "setting": "[1]; 5 h", "result": "~3.2", "unit": "fold"}, {"measurement": "mRNA/pre-mRNA ratios of CDKN1A, GADD45α, and GADD45β", "setting": "[1]; by 5 h", "result": "significantly increased"}, {"measurement": "level of β-Gl Ter mRNA as % of the level of β-Gl Norm mRNA", "setting": "[2]", "result": "~85", "unit": "%"}]}
